We go through 7 compounds from BindingDB's records for doi:10.7270/Q22R3Q4F (Broad Institute, 2010).

A value given as a limit tells only on which side of the number the result lay.

The experiment deals with T1, Alkanal monooxygenase alpha chain (Vibrio harveyi, UniProt P07740).
T1 sequence (P07740 whole entry): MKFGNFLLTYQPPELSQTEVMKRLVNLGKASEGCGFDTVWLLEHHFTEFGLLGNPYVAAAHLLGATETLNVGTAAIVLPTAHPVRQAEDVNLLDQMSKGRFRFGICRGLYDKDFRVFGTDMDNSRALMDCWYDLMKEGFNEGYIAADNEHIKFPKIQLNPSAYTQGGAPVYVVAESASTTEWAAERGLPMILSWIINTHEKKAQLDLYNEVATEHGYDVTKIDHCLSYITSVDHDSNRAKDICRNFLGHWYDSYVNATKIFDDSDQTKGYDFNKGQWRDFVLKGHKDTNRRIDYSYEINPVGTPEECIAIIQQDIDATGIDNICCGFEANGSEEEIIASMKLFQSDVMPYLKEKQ
Briefly: Vibrio harveyi growth inhibition, confirmation, absorbance, dose retest (AID 2723).
A word on the EC50: it is the concentration needed to bring the measured effect to its halfway point. Read a high EC50 as a need for much substance. As to `Cn1cnc(S(=O)(=O)Nc2ccc(OC(F)(F)F)cc2)c1` [SMR000314513], the EC50 was > 160 µM.
Then `CCc1ccc(S(=O)(=O)Nc2ccc(Br)cn2)cc1` [MLS001211346], with > 160 µM.
Then `C=Cn1c(C(=O)O)ccc1-c1ccc(CC)cc1`, with > 160 µM.
With `Cc1cccc(NS(=O)(=O)c2ccc(Oc3ccccc3)cc2)n1` [SMR000071466] the figure was > 160 µM.
Consider `CN(C)S(=O)(=O)c1ccc(NC(=S)NC(=O)Cc2ccccc2)cc1` [N-[[4-(dimethylsulfamoyl)phenyl]carbamothioyl]-2-phenyl-ethanamide], for which the EC50 is > 160 µM.
As for `COc1cc(NC(=O)CN2C(=O)NC(c3ccccc3)(c3ccccc3)C2=O)cc(OC)c1` [MLS001176525], the EC50 was > 160 µM.
Then `CCCc1ccc(S(=O)(=O)N(C)S(=O)(=O)c2ccc(F)cc2)cc1` [N-(4-fluorophenyl)sulfonyl-N-methyl-4-propylbenzenesulfonamide], with 7.78 µM.
